# Measured values taken from patent publication US11926574B2, “Dimethoxyphenylalkylamine activators of serotonin receptors” (Entheogenix Biosciences, Inc., priority 2021, dated 2024).
# Structures can show the parent of a compound that is named as a salt.
# Target: 5HT2A (Homo sapiens, UniProt P28223)
# Experiment: 5HT2A Activity (% Max Activation @ 0.3 uM)
# Assay type: cell-based
# Chain of 5HT2A (P28223 whole entry): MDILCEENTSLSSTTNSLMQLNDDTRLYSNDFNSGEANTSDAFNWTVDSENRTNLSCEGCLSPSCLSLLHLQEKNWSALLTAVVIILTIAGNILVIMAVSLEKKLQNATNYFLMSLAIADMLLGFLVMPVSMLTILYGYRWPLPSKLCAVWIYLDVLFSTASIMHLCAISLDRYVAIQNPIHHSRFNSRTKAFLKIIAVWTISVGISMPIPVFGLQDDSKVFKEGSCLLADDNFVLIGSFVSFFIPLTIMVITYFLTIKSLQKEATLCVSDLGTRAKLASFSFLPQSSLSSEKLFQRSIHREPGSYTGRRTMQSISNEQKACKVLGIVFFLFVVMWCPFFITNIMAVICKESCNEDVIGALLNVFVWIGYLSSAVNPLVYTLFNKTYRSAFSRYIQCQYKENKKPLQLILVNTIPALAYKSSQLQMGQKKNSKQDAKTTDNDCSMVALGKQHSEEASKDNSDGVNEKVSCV
row,SMILES,Emax at 0.3 µM [%]
1,"COc1cc([S@@](C)(=N)=O)c(OC)cc1CCNCc1cc(C)cc(Cl)c1 [Compound 2-35, (S)-(4-(2-((3-chloro-5-methylbenzyl)amino)ethyl)-2,5-dimethoxyphenyl)(imino)(methyl)-16-sulfanone]",50
2,"COc1ccc(OC)c([C@@H](O)CNCc2cc(C)cc(F)c2)c1 [Compound 2-41, (R)-1-(2,5-dimethoxyphenyl)-2-((3-fluoro-5-methylbenzyl)amino)ethan-1-ol hydrochloride]",74
3,"COc1ccc(OC)c2c1CCC(NCc1cc(C)cc(F)c1)C2 (stereo not shown) [Compound 1-3, N-(3-fluoro-5-methylbenzyl)-5,8-dimethoxy-1,2,3,4-tetrahydronaphthalen-2-amine]",76
4,"COc1ccc(OC)c(CCNCc2cc(C)ccc2Cl)c1 [Compound 2-4, N-(2-chloro-5-methylbenzyl)-2-(2,5-dimethoxyphenyl)ethan-1-amine]",67
5,"COc1cc(CCNCc2cc(C)cc(Cl)c2)c(OC)cc1F [Compound 2-20, N-(3-chloro-5-methylbenzyl)-2-(4-fluoro-2,5-dimethoxyphenyl)ethan-1-amine]",89
6,"COc1cc([S+](C)[O-])c(OC)cc1CCNCc1cc(C)cc(Cl)c1 (stereo not shown) [Compound 2-25, N-(3-chloro-5-methylbenzyl)-2-(2,5-dimethoxy-4-(methylsulfinyl)phenyl)-ethan-1-amine]",95
7,"COc1cc(S(C)(=O)=O)c(OC)cc1CCNCc1cc(C)cc(Cl)c1 [Compound 2-26, (3-chloro-5-methylbenzyl)-2-(2,5-dimethoxy-4-(methylsulfonyl)phenyl)ethan-1-amine]",95
8,"COc1ccc(OC)c2c1CCC(NCc1cc(C)cc(I)c1)C2 (stereo not shown) [Compound 1-5, N-(3-iodo-5-methylbenzyl)-5,8-dimethoxy-1,2,3,4-tetrahydronaphthalen-2-amine]",12
9,"COc1ccc(OC)c(CCNCc2cc(Cl)ccc2C)c1 [Compound 2-12, N-(5-chloro-2-methylbenzyl)-2-(2,5-dimethoxyphenyl)ethan-1-amine]",41
10,"COc1cc([S@](C)(=N)=O)c(OC)cc1CCNCc1cc(C)cc(Cl)c1 [Compound 2-34, (R)-(4-(2-((3-chloro-5-methylbenzyl)amino)ethyl)-2,5-dimethoxyphenyl)(imino)(methyl)-16-sulfanone]",56
11,COc1ccc(OC)c(CCNCc2cccc(Cl)c2C)c1 [Compound 2-15],20
12,"COc1ccc(OC)c(CCNCc2cc(C)cc(I)c2)c1 [Compound 2-11, 2-(2,5-dimethoxyphenyl)-N-(3-iodo-5-methylbenzyl)ethan-1-amine]",76
13,"COc1ccc(OC)c(CCNCc2cc(C)cc(C#N)c2)c1 [Compound 2-36, 3-(((2,5-dimethoxyphenethyl)amino)methyl)-5-methylbenzonitrile]",16
14,"COc1ccc(OC)c(CCNCc2cccc(C)c2Cl)c1 [Compound 2-16, N-(2-chloro-3-methylbenzyl)-2-(2,5-dimethoxyphenyl)ethan-1-amine]",64
15,"COc1ccc(OC)c2c1CCC(NCc1cc(C)ccc1Cl)C2 (stereo not shown) [Compound 1-13, N-(2-chloro-5-methylbenzyl)-5,8-dimethoxy-1,2,3,4-tetrahydronaphthalen-2-Amine]",15
16,"COc1cc(CCNCc2cc(C)cc(Cl)c2)c(OC)cc1C [Compound 2-18, N-(3-chloro-5-methylbenzyl)-2-(2,5-dimethoxy-4-methylphenyl)ethan-1-amine]",94
17,"COc1ccc(OC)c(CCNCc2ccc(C)cc2Cl)c1 [Compound 2-3, N-(2-chloro-4-methylbenzyl)-2-(2,5-dimethoxyphenyl)ethan-1-amine]",8
18,"COc1ccc(OC)c(CCNCc2cc(Cl)cc(Cl)c2)c1 [Compound 2-6, N-(3,5-dichlorobenzyl)-2-(2,5-dimethoxyphenyl)ethan-1-amine]",68
19,"COc1cc(C)c(OC)c2c1CC(NCc1cc(C)cc(Cl)c1)CC2 (stereo not shown) [Compound 1-19, N-(3-chloro-5-methylbenzyl)-5,8-dimethoxy-6-methyl-1,2,3,4-tetrahydro-naphthalen-2-amine hydrochloride]",73
20,"COc1ccc(OC)c(CCNCc2cc(C)cc(Br)c2)c1 [Compound 2-10, N-(3-bromo-5-methylbenzyl)-2-(2,5-dimethoxyphenyl)ethan-1-amine]",79
21,"COc1ccc(OC)c([C@@H](O)CNCc2cc(C)cc(Cl)c2)c1 [Compound 2-32, (R)-2-((3-chloro-5-methylbenzyl)amino)-1-(2,5-dimethoxyphenyl)ethan-1-ol]",83
22,"COc1cc(SC)c(OC)cc1CCNCc1cc(C)cc(Cl)c1 [Compound 2-24, N-(3-chloro-5-methylbenzyl)-2-(2,5-dimethoxy-4-(methylthio)phenyl)ethan-1-amine]",91
23,"COc1ccc(OC)c2c1CCC(NCc1cccc(Cl)c1Cl)C2 (stereo not shown) [Compound 1-17, N-(2,3-dichlorobenzyl)-5,8-dimethoxy-1,2,3,4-tetrahydronaphthalen-2-amine]",1
24,"COc1ccc(OC)c(C(O)CNCc2cc(C)cc(Cl)c2)c1 (stereo not shown) [Compound 2-30, 2-((3-chloro-5-methylbenzyl)amino)-1-(2,5-dimethoxyphenyl)ethan-1-ol]",80
25,"COc1ccc(OC)c2c1CCC(NCc1cc(C)cc(Cl)c1)C2 (stereo not shown) [Compound 1-1, N-(3-chloro-5-methylbenzyl)-5,8-dimethoxy-1,2,3,4-tetrahydronaphthalen-2-amine]",67
26,"COc1ccc(OC)c2c1CCC(NCc1ccc(Cl)cc1C)C2 (stereo not shown) [Compound 1-11, N-(4-chloro-2-methylbenzyl)-5,8-dimethoxy-1,2,3,4-tetrahydronaphthalen-2-amine]",1
27,"COc1ccc(OC)c2c1CCC(NCc1cccc(C)c1Cl)C2 (stereo not shown) [Compound 1-10, N-(2-chloro-3-methylbenzyl)-5,8-dimethoxy-1,2,3,4-tetrahydronaphthalen-2-amine]",2
28,"COc1ccc(OC)c(CCNCc2ccc(Cl)c(C)c2)c1 [Compound 2-14, N-(4-chloro-3-methylbenzyl)-2-(2,5-dimethoxyphenyl)ethan-1-amine]",1
